From patent publication US20240342111A1, “ISOMER-SPECIFIC NEUROPROTECTIVE EFFECT OF NATURAL RESERVATROL” (priority 2021, published 2024)

Assays:
Ligase IV = experiment: Immunoblot for DNA repair protein Ligase IV; assay type: cell-based, rat; conditions: 5-50 μM, 4 hours
Excerpt: (§1) Ac-K56-H3 is a marker of genomic stability, see Driscoll, R., Hudson, A. & Jackson, S. P. Yeast Rtt109 promotes genome stability by acetylating histone H3 on lysine 56. Science 315, 649-652, doi:10.1126/science.1135862 (2007), and DNA damage, see Tjeertes, J. V., Miller, K. M. & Jackson, S. P. Screen for DNA-damage-responsive histone modifications identifies H3K9Ac and H3K56Ac in human cells. EMBO J 28, 1878-1889, doi:10.1038/emboj.2009.119 (2009), and inhibition of PARP1 causes the downregulation of RAD51, see Hegan, D. C. et al. Inhibition of poly(ADP-ribose) polymerase down-regulates BRCA1 and RAD51 in a pathway mediated by E2F4 and p130. […] The western blot images of the protein levels of HPF1 was quantified using ImageJ.
Cultured neurons (DIV 9-10) were washed once with cold 1×PBS and lysed in cell lysis buffer (20 mM Tris-HCl (pH 7.5), 150 mM NaCl, 1 mM Na2EDTA, 1 mM EGTA, 1% Triton, 2.5 mM sodium pyrophosphate, 1 mM beta-glycerophosphate, 1 mM Na3VO4, 1 μg/ml leupeptin supplemented with protease inhibitor). […] Lysates were quantified using Bio-Rad Protein Assay, and an equal amount of protein was loaded onto a 4 to 12% gradient gel (NuPAGE-Invitrogen). […] Quantification for the western blots was done using ImageJ (Version 1.53c).

pSer10-H3 = experiment: Immunostaining of pSer10-H3 (ADP-ribosylation dependent DNA repair marker); assay type: cell-based, rat; conditions: pre-treated 50 μM 16 hours, then Aβ 50 nM 24 hours
Excerpt: as §1, with “p130. Proc Natl Acad Sci U S A 107, 2201-2206, doi:10.1073/pnas.0904783107 (2010), and induces neurotoxicity, see Diaz-Hernandez, J. I., Moncada, S., Bolanos, J. P. & Almeida, A. Poly(ADP-ribose) polymerase-1 protects neurons against apoptosis induced by oxidative stress. Cell Death Differ 14, 1211-1221, doi:10.1038/sj.cdd.4402117 (2007) and Midorikawa, R., Takei, Y. & Hirokawa, N. KIF4 motor regulates activity-dependent neuronal survival by suppressing PARP-1 enzymatic activity. Cell 125, 371-383, doi:10.1016/j.cell.2006.02.039 (2006).” for “p130.”
Coverslips were then mounted using DAPI (4′,6-diamidino-2-phenylindole)-supplemented mounting medium, Prolong Gold Antifade (Invitrogen) imaged with Leica DMI6000 epifluorescent microscope at 63×magnification.

PARP1 [1] = experiment: Immunoblot of chromatin fraction for PARP1 and PAR; assay type: cell-based, rat; conditions: 50 μM, 1 hour
H3 = experiment: Immunoblot for histone H3 acetylation (Ac-K9-H3, Ac-K56-H3); assay type: cell-based, rat; conditions: 15 minutes
Cortical neurons = experiment: Aβ-induced neurite degeneration (MAP2 immunostaining); assay type: cell-based, rat; conditions: for Aβ-induced neurotoxicity (neurite degeneration): pre-treated 50 μM 16 hours, then Aβ 50 nM 24 hours
Method: Cells were then exposed to excitotoxic NMDA (500 μM for 5 minutes) and viability was assessed using MTT assay after 24 hours. […] Rat cortical neurons (DIV 9) were treated with NMDA (50 μM for 5 minutes) and then with cis-RSV for 24 hours. Cells were then exposed to excitotoxic NMDA (500 μM for 5 minutes) and viability was assessed using MTT assay after 24 hours. […] Cell viability was assessed after 48 hours. […] Representative images (scale bar, 20 μm) for cortical neurons following neurite degeneration (MAP2—neurite marker, magenta and DAPI—nuclear marker, blue). […] Neurons were immunoassayed with anti-MAP2 antibody and quantified for neurite degeneration. The data represents mean±SEM for n=3 experiments with significance measured using Student's paired t-test.
Amyloid Beta oligomers were prepared as described previously, see Ahmed, M. et al. Structural conversion of neurotoxic amyloid-beta (1-42) oligomers to fibrils. Nat Struct Mol Biol 17, 561-567, doi:10.1038/nsmb.1799 (2010) and Wang, X. et al. Elevated Neuronal Excitability Due to Modulation of the Voltage-Gated Sodium Channel Nav1.6 by A beta (1-42). Front Neurosci-Switz 10, doi:ARTN 94 10.3389/fnins.2016.00094 (2016). […]
Neurite degeneration index was calculated as described previously, see Jin, M. et al. Soluble amyloid beta-protein dimers isolated from Alzheimer cortex directly induce Tau hyperphosphorylation and neuritic degeneration. […] The samples to be analyzed for neurite degeneration were stained using the standard immunofluorescence procedure with MAP2 (Alexa fluor 647) for neurites and DAPI staining for the nucleus. Neurite degeneration quantification was done using 5-6 regions of interest of equal sizes from each treatment condition. […] To detect degenerated neurites, we used the particle analyzer module of ImageJ and calculated the percentage of the area of the small fragments or particles (size=3-10 μm^2) to the intact neurites (size>25 μm2) with information derived from the binary images. A degeneration index (DI) was calculated as the fragmented neurite area ratio over intact neurite area. […]

Rat cortical neurons = experiment: MPP+ toxicity (mitochondrial inhibition), cell viability; assay type: cell-based
PARP1 [2] = experiment: Auto-PARylation of PARP1 after siRNA knockdown of TyrRS; assay type: cell-based, rat; conditions: 15 minutes

| Compound | ligase IV protein levels (Ligase IV) | pSer10-H3 levels (pSer10-H3) | PARP1 and PAR in the chromatin fraction (PARP1 [1]) | acetylation level of H3 lysine 9 (Ac-K9-H3) (H3) | Aβ-induced neurotoxicity (neurite degeneration) (Cortical neurons) | protection against MPP+ toxicity (cell viability) (Rat cortical neurons; 10 μM MPP, pre-treatment 50 μM for 16 hours, viability after 48 hours) | auto-PARylation of PARP1 after knockdown of TyrRS (PARP1 [2]; cis-RSV 25 μM) | acetylation level of H3 lysine 56 (Ac-K56-H3) (H3) | neurotoxicity (neurite degeneration) by itself (Cortical neurons; 50 μM, without Aβ) | neurotoxicity by itself (Rat cortical neurons; high dose 50 μM, no toxin) | auto-PARylation of PARP1 after knockdown of TyrRS (PARP1 [2]; trans-RSV 5 μM) |
| --- | --- | --- | --- | --- | --- | --- | --- | --- | --- | --- | --- |
| Oc1ccc(/C=C\c2cc(O)cc(O)c2)cc1 [cis-RSV, cis-resveratrol] | upregulated them | reduced pSer10-H3 levels | downregulated PARP1 (170 kDa) and PAR modification in the chromatin fraction | upregulated the acetylation levels of H3 lysine 9 (Ac-K9-H3) | protected against Aβtoxicity | protects against MPP toxicity | blunted after knockdown of TyrRS |  |  |  |  |
| Oc1ccc(/C=C/c2cc(O)cc(O)c2)cc1 [trans-RSV, trans-resveratrol] | downregulated the protein levels | upregulation | enhanced the association (‘trapping’) of PARP1 with chromatin | downregulated the lysine 9 and 56 acetylation levels of H3 | exacerbating Aβtoxicity |  |  | downregulated the lysine 9 and 56 acetylation levels of H3 | itself induced neurotoxicity | neurotoxic | blunted after knockdown of TyrRS |
